Values of other authors in patent US9498424B2, “Active mixtures of acylated oligopeptides and troxerutin” (Symrise AG, priority 2013, dated 2016).

System: mice

Q: Which results are given for `C[C@@H]1O[C@@H](OC[C@H]2O[C@@H](Oc3c(-c4ccc(OCCO)c(OCCO)c4)oc4cc(OCCO)cc(O)c4c3=O)[C@H](O)[C@@H](O)[C@@H]2O)[C@H](O)[C@H](O)[C@H]1O` [Troxerutin]?
A: CNS insulin resistance: reverse CNS insulin resistance; reactive oxygen species induced by a high-cholesterol diet: reduce reactive oxygen species
